In the assay the test system is bacterial pool of seven organisms. In words: Dow time-kill test in pH 7.4 hand dish-washing liquid, with Kull synergy index. It is filed as cell-based. As to conditions: for Concentration required to achieve >=4 Log bacterial counts reduction: bacterial pool, pH 7.4 hand dish-washing liquid, 37° C., active ingredient basis. The procedure:
Four biocides and their combinations were tested at different concentration ranges. […] All biocide solutions were prepared and diluted in sterile DI water and used within 2 hours. These biocides are commercially available from The Dow Chemical Company. [table] A bacteria pool was used for testing. 24 hr bacterial cultures were obtained in TSB (Tryptic Soy Broth) media at 37° C. incubation for the seven organisms. The bacterial pool of seven organisms was prepared by taking equal parts of a 24 hour stationary phase aliquot from each bacterial culture and mixing them together. […] The time-kill tests were carried out to determine the threshold concentration of the biocide products in pH 7.4 hand dish-washing liquid. […] Biocides were then added into this bacterial suspension at various levels and mixed immediately. The mixed samples were then incubated at 37° C. At 24 hrs, viable bacteria remaining in the hand dish-washing samples were determined by 1:10 serial dilutions, transferring 20 ul aliquot of each sample into 180 ul TSB/Resazurin media. Triplicate tests were conducted. MPN method was used to determine the microbial concentration at after 24 hours incubation at 37° C. […] One measure of synergism is the industrially accepted method described by Kull, […]. and Mayer, R. L., in Applied Microbiology 9:538-541 (1961), using the ratio determined by the formula: Qa/QA+Qb/QB=Synergy Index (“SI”) wherein: • QA=concentration of compound A (first component) in ppm, acting alone, which produced an end point (MIC of Compound A). • Qa=concentration of compound A in ppm, in the mixture, which produced an end point. • QB=concentration of compound B (second component) in ppm, acting alone, which produced an end point (MIC of Compound B). • Qb=concentration of compound B in ppm, in the mixture, which produced an end point. When the sum of Qa/QA and Qb/QB is greater than one, antagonism is indicated. […] The lower the SI, the greater the synergy shown by that particular mixture. The minimum inhibitory concentration (MIC) of a microbicide is the lowest concentration tested under a specific set of conditions that prevents the growth of added microorganisms.

We go through three molecules from US20180092360A1, “MICROBICIDAL COMPOSITION” (Dow Global Technologies LLC, priority 2015, published 2018).

Where two headings read alike, the source gives them in different places. Bounds are passed on as bounds.

With `O=c1[nH]sc2ccccc12` [BIT, 1,2-benzisothiazol-3-one], for the setting “24 h”, the “Concentration required to achieve >=4 Log bacterial counts reduction” value is listed as 400 ppm. Further, for the setting “Bacterial Pool, 24 hours, BIT alone (QA) or BIT in mixture with SOPP (Qa), read-out: Minimum Inhibitory Concentration (ppm) BIT”, the MIC stood at 400 µg/mL.
For `Cn1sccc1=O` [MIT, 2-Methylisothiazol-3-one], the MIC (24 h, read-out: Minimum Inhibitory Concentration (ppm) MIT) is > 95 µg/mL. Besides, under “24 h”, the “Concentration required to achieve >=4 Log bacterial counts reduction” value is listed as >95 ppm.
`[Na+].[O-]c1ccccc1-c1ccccc1` [SOPP, sodium orthophenylphenate]: for the setting “24 h”, the “Concentration required to achieve >=4 Log bacterial counts reduction” value stood at 358.5 ppm. The “Minimum Inhibitory Concentration (ppm) SOPP” value reads like this: (Bacterial Pool, 24 hours, SOPP alone (QB) or SOPP in mixture with BIT (Qb)) 358.5 ppm; (Bacterial Pool, 24 hours, SOPP alone (QB) or SOPP in mixture with CMIT/MIT (Qb)) 358.5 ppm; (Bacterial Pool, 24 hours, SOPP alone (QB) or SOPP in mixture with MIT (Qb)) 358.5 ppm.
